These are literature values, as cited in US9101541B2 (Cadila Healthcare Limited, priority 2010, dated 2015).

For data set [1] the following is noted: oral administration.

As for `CO[C@H]1C[C@@H]2CC[C@@H](C)[C@@](O)(O2)C(=O)C(=O)N2CCCC[C@H]2C(=O)O[C@H]([C@H](C)C[C@@H]2CC[C@@H](O)[C@H](OC)C2)CC(=O)[C@H](C)/C=C(\C)[C@@H](O)[C@@H](OC)C(=O)[C@H](C)C[C@H](C)/C=C/C=C/C=C/1C` [Sirolimus, (3S,6R,7E,9R,10R,12R,14S,15E,17E,19E,21S,23S,26R,27R,34aS)-9,10,12,13,14,21,22,23,24,25,26,27,32,33,34,34a-hexadecahydro-9,27-dihydroxy-3-[(1R)-2-[(1S,3R,4R)-4-hydroxy-3-methoxycyclohexyl]-1-methylethyl]-10,21-dimethoxy-6,8,12,14,20,26-hexamethyl-23,27-epoxy-3H-pyrido[2,1-c][1,4]oxaazacyclohentriacontine-1,5,11,28,29 (4H,6H,31H)-pentone], the “oil and water solubility” value is “poor oil and water solubility”. Moreover, where the note is “Pharmaceutical Research, Vo. 22, No. 1, January 2005, Chi-Yuan Wu et al.”, the BCS class entry is listed as “BCS Class 2”. Moreover, the “time to maximum blood concentrations after dosing” value in data set [1] was 0.5 to 2.3 h.
